{
  "source": "patent US20070269492A1",
  "about": "“New product and use and manufacture thereof” (priority 2006, published 2007)",
  "key": {"[1]": {"description": "Absorption of nicotine from the oral cavity to the systemic circulation is dependent on the pH of the saliva, pH of the blood plasma and the pKa of nicotine, which is about 7.8. Assuming a pH of the saliva of 6.8, only about 10% of the nicotine will be in the free base form. Thus, in order to promote absorption of nicotine in a free base form, which is the form predominantly absorbed through the mucosa, the pH of the saliva must preferably be increased to at least pH 7 and to at most pH 10, more preferably to at least pH 8 and at most pH 9.5. At a pH of 8.8 about 90% of the nicotine will then be in the free base form."}, "[2]": {"settings": "cited from earlier work"}},
  "note": "Where two headings read alike, the source gives them in different places.",
  "data": [
    {"molecule": "CN1CCCC1c1cccnc1", "note": "(stereo not drawn) [nicotine, 3-(1-methyl-2-pyrrolidinyl)-pyridine]", "values": [
      {"measurement": "nicotine in the free base form", "setting": "[1]; pH 8.8", "value": "about 90%"},
      {"measurement": "nicotine in the free base form", "setting": "[1]; saliva pH 6.8", "value": "about 10%"},
      {"measurement": "single dose able to kill an adult", "setting": "[2]", "value": "Approximately 40 milligrams"}
    ]}
  ]
}
